These results are taken from patent publication US9133212B1, “Inhibitors of hemeprotein-catalyzed lipid peroxidation” (Vanderbilt University, priority 2005, dated 2015).

Where two headings read alike, the source gives them in different places.

In one data set the target is T1, PGHS-2 (COX-2) (Homo sapiens, UniProt P35354).
T1 sequence (P35354 18-604): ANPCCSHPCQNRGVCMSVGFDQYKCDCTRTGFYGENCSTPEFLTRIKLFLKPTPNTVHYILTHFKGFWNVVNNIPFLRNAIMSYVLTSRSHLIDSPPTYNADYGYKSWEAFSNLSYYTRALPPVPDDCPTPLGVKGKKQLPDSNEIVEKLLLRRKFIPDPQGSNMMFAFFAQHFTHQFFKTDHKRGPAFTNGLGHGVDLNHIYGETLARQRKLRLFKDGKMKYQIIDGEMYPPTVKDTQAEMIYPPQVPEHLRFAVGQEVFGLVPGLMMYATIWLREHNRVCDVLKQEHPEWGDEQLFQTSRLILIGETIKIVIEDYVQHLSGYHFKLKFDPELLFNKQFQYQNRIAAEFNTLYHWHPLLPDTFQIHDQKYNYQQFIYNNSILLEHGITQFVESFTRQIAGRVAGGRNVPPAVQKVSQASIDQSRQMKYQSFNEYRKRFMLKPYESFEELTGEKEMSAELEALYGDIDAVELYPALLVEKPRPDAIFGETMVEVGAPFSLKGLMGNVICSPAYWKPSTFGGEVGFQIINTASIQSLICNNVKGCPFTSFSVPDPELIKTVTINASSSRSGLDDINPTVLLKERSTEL
Description: Inhibition of PGHS-2 (COX-2), [14C]arachidonic acid oxidation. The class given is biochemical. The conditions noted are these: for inhibition of PGHS-2 (COX-2), in words: compared with its PGHS-1 inhibition. As for the experimental part:
(§1) Hematin-reconstituted COX-1 (5.4 nM) or COX-2 (10.8 nM) in Tris HCl 100 mM, pH 8.0, 500 μM phenol, was pre-incubated with N-dimethyl pyrimidinol (DM, plain line) or N-dimethyl pyridinol (DR, dashed line) at varying concentrations at 37° C. for 20 minutes. At this time the reaction was initiated by addition of 0.5 μM of [14C] arachidonic acid. After 8 seconds, the reaction was stopped by adding an ice cold mixture of diethyl ether/methanol/4.0 M citric acid. PGHS-1 activity was expressed as percent oxidation of arachidonic acid compared with control where no inhibitor was added. Each data point represents the mean±S.E.M of six values.

Another data set has as its system HepG2 liver cell line. As for the experimental part: HepG2 were plated in multiple 96-well plates at 2×10^4 cells per well and pretreated with ethanol 100 μM for 2 hours. […] Cell viability after 24 h was determined by measuring ATP levels by luminescence assay.
Another data set addresses PGHS-1 (COX-1) (Homo sapiens, UniProt P23219). The experiment in a line: Inhibition of PGHS-1 (COX-1), [14C]arachidonic acid oxidation. It is filed as biochemical. The conditions noted are these: for IC50: in vitro system. As for the experimental part:
At this time the reaction was initiated by addition of 0.5 μM of [14C]arachidonic acid. After 8 seconds, the reaction was stopped by adding an ice cold mixture of diethyl ether/methanol/4.0 M citric acid. PGHS-1 activity was expressed as percent oxidation of arachidonic acid compared with control where no inhibitor was added. Each data point represents the mean±S.E.M of six values.
as §1

For a further data set, the target named is T2, ferryl myoglobin (Homo sapiens, UniProt P02144).
T2 sequence (P02144 1-154): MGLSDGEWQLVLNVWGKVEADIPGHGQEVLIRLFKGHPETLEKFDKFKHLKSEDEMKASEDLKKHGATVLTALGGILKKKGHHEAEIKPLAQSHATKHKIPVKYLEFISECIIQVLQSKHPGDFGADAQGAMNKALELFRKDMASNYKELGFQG
The experiment in a line: Reduction of ferryl myoglobin to ferric myoglobin. The class given is biochemical. Here is the method: Ferryl myoglobin was generated by incubating ferric myoglobin 10 μM in PBS with 10 μM hydrogen peroxide until there was no more change in the peak at 421 nm. At this time, the analogs were added to the cuvette at the final concentrations indicated and spectra were recorded every 15 sec for 2 min. The initial rate of reduction was calculated as the variation of absorbance at 409 nm in the first two minutes after adding the analogs. In this period of time the rates of reduction were linear for each concentration of analog.

In a further data set the test system is HepG2 cells. The experiment in a line: Direct cellular toxicity (total cellular ATP levels). The class given is cell-based. The conditions noted are these: Homo sapiens, concentration causing a 50% decrease in total cellular ATP levels, read-out: Cellular Toxicity (EC50, μM ± SD). From the text: Microsomal stability is expressed as % of unmodified compound remaining after reaction. Cellular toxicity is expressed as the con-centration causing a 50% decrease in total cellular ATP levels. Values represent means±S.E.M.

A further data set in a line: Microsomal stability. The conditions noted are these: % of unmodified compound remaining after reaction.
Data set [1] concerns the target T3, COX-1 (Homo sapiens, UniProt P23219). Description: Inhibition of COX-1 oxidation of arachidonic acid (Example 6). It is filed as biochemical. As for the experimental part: (§2) The inhibition of the lipid peroxidation produced by myoglobin (Mb) and COX-1 by the different analogs was tested. Values represent the IC50 for each hemeprotein and are expressed as means±S.E.M. a: value reported from (1.). b: value reported from (3).

The target of a further data set is T4, myoglobin (Mb) (Homo sapiens, UniProt P02144).
T4 sequence (P02144 1-154): T2 sequence (P02144 1-154)
Description: Inhibition of myoglobin-induced arachidonic acid oxidation. The class given is biochemical. As for the experimental part: as §2

Data set [2] concerns the target T3, COX-1. The conditions noted are these: oxidation of arachidonic acid, Table 2, footnote b; read-out: COX-1 IC50 (μM ± SEM), value reported from (3); cited from earlier work.
Data set [3] relates to rat model of rhabdomyolysis. The experiment in a line: Rat model of rhabdomyolysis (renal failure from myoglobin-catalyzed lipid peroxidation). The class given is in vivo. The conditions noted are these: dose that produced plasma levels in the therapeutic range for humans.
Another data set concerns the target hemoglobin (Homo sapiens, UniProt P68871+P69905). The experiment in a line: Inhibition of hemoglobin-catalyzed lipid peroxidation. The conditions noted are these: read-out: IC50 for hemoglobin (hemoprotein-catalyzed lipid peroxidation). It is filed as biochemical.
[4] abbreviates: bicyclic compounds, structure table, read-out: Oxidation of AA by COX-1 IC50.
The mark [5] stands for this setting: oxidation of arachidonic acid, Table 2, read-out: COX-1 IC50 (μM ± SEM).
Setting [6] is: bicyclic compounds, structure table, read-out: Oxidation of AA by Mb IC50.
Setting [7] is: oxidation of arachidonic acid, Table 2, read-out: Mb IC50 (μM ± SEM).

T3 sequence (P23219 24-599, species assumed): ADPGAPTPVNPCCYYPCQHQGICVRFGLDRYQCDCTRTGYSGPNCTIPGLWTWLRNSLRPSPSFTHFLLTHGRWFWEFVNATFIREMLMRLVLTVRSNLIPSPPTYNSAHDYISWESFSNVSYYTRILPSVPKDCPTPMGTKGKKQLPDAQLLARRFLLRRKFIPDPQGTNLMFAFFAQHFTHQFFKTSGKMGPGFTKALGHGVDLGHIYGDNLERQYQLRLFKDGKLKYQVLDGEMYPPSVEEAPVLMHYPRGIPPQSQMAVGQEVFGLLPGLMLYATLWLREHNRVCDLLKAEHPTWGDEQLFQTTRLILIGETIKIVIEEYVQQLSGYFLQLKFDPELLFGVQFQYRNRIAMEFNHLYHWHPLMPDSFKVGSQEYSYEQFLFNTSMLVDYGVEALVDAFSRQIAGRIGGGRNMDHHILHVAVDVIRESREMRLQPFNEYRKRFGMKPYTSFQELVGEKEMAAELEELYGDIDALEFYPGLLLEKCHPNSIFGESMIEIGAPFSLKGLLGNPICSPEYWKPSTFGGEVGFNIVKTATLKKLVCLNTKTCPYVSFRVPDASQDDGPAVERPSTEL
Chain of PGHS-1 (COX-1) (P23219 24-599, species assumed): as above
Chain of hemoglobin (P69905 2-142 limits assumed): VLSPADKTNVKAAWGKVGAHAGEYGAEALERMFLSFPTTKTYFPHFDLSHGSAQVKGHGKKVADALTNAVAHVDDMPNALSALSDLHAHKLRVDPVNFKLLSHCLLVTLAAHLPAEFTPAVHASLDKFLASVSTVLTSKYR
Chain of hemoglobin (P68871 2-147 limits assumed): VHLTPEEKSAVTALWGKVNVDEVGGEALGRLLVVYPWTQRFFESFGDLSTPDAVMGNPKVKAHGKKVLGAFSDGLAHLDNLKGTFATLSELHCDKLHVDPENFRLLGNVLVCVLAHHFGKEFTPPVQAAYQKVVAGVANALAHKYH

For the compound “2-(dimethylamino)pyrimidin-5-ol [DM-Pym]”, at PGHS-2 (COX-2) (relative to acetaminophen), the “times more potent as an inhibitor of PGHS-2 than acetaminophen” value was 10 times. In the data set with HepG2 liver cell line, the “cytotoxicity in HepG2 cell line stimulated with ethanol” value is listed as “not cytotoxic”. The “times more potent as an inhibitor of PGHS-1 than acetaminophen” value at PGHS-1 (COX-1) (relative to acetaminophen) was determined as 10 times. For the same compound, the “times more potent in reducing ferryl myoglobin than acetaminophen” value at ferryl myoglobin (relative to acetaminophen) was determined as 14 times.

In the case of `O=C1NCc2cc(O)cnc2N1` [Analog 12], the 50% effective concentration (EC50) in the data set on HepG2 cells was 4760 ± 36 µM. In addition, the “Microsomal stability % left” value in the data set “Microsomal stability” came out at 158 ± 33%. Moreover, the concentration for half-maximal inhibition (IC50) at COX-1 [1] (setting [4]) came out at 451 µM; on COX-1 [1] (setting [5]), 451 ± 35 µM; on myoglobin (Mb) (setting [6]), 1.15 ± 0.3 µM; on myoglobin (Mb) (setting [7]), 1.2 ± 0.1 µM.

Consider `Cc1nc2c(c(C)c1O)CNC(=O)N2` [Analog 13], for which the 50% effective concentration (EC50) with HepG2 cells stood at 2960 ± 284 µM. Also, in “Microsomal stability”, the “Microsomal stability % left” value is recorded as 87 ± 7%. In addition, the “inhibition of COX-1, in words” value on COX-1 [1] (at concentrations up to 1 mM) is on record as “not able to significantly inhibit”. Further, the half-maximal inhibitory concentration (IC50) on COX-1 [1] (setting [4]) was > 1000 µM; at COX-1 [1] (setting [5]), > 1000 µM; at myoglobin (Mb) (setting [6]), 2.29 ± 0.6 µM; on myoglobin (Mb) (setting [7]) it was 2.3 ± 0.4 µM.

For `Cc1nc2c(c(C)c1O)COC(=O)N2` [Analog 14], the concentration giving a half-maximal response (EC50) with HepG2 cells was > 5000 µM. Further, the “Microsomal stability % left” value in “Microsomal stability” is reported as 97 ± 3%. In addition, the IC50 on COX-1 [1] (setting [4]) was found to be 198 ± 50.1 µM; at COX-1 [1] (setting [5]) it was 198 ± 25 µM; at myoglobin (Mb) (setting [6]) it was 5.34 ± 0.1 µM; on myoglobin (Mb) (setting [7]), 5.3 ± 0.1 µM.

On to `CC(=O)Nc1ccc(O)cc1` [ApAP, acetaminophen], for which the EC50 in the data set with HepG2 cells came out at 594 ± 147 µM. The concentration for half-maximal inhibition (IC50) was 372 µM on COX-1 [2], 250 µM on PGHS-1 (COX-1) and 15 µM on hemoglobin. Moreover, the entries for the “lipid peroxidation in rhabdomyolysis model” value in data set [3] (listed as Acetaminophen) and in [3] (listed as acetaminophen) were “blocked” and “blocks”, respectively. Besides, the “renal failure in rhabdomyolysis model” value is reported as “prevented” in [3] (listed as Acetaminophen) and “blocks” in data set [3] (listed as acetaminophen).

For `CN(C)c1ncc(O)cn1` [DM-Pym, 2-(dimethylamino)pyrimidin-5-ol], on PGHS-2 (COX-2), the “inhibition of PGHS-2 (COX-2), in words” value is “equally effective”. Besides, the “cytotoxicity in HepG2 cell line stimulated with ethanol” value with HepG2 liver cell line is recorded as “does not cause cytotoxicity”. This compound also came in with an IC50 at PGHS-1 (COX-1) of 21 µM. The “potency in reducing ferryl myoglobin, in words” value on ferryl myoglobin (compared with acetaminophen) is on record as “remarkably more potent than acetaminophen”.

On to `CN(C)c1ccc(O)cn1` [DM-Pyr, 6-(dimethylamino)pyridin-3-ol], for which the “inhibition of PGHS-2 (COX-2), in words” value against PGHS-2 (COX-2) is recorded as “only a weak inhibitor”.

As a reminder, the EC50 is the concentration at which the effect is half-maximal. The IC50 is the point on the concentration scale where inhibition reaches its midpoint.
